Read-outs that look alike come from different tables or passages of the source.

In data set [1] the target is T1, ABCG2 (Homo sapiens, UniProt Q9UNQ0).
T1 sequence (Q9UNQ0 1-655): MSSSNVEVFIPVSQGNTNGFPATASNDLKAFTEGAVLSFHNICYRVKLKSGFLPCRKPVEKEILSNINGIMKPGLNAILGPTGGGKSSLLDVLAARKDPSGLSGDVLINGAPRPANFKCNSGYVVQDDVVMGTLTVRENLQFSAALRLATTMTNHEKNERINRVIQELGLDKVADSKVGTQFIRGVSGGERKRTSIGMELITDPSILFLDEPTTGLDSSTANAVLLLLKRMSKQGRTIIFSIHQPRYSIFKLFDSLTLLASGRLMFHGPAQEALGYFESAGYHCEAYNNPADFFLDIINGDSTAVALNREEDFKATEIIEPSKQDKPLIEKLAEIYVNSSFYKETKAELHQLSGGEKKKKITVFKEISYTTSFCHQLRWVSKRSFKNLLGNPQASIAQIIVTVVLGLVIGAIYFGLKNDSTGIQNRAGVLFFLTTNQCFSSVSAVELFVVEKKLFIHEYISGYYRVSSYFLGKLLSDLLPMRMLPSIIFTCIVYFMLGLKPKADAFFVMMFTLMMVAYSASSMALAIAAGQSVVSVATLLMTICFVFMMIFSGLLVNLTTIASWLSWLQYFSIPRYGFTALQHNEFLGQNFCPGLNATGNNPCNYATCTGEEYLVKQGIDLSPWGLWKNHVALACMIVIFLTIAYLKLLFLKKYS
Description: Vanadate sensitive ABCG2-ATPase assay in ABCG2-Sf9 (insect cell) membranes. The method, then: (§1) Measurement of transporter activity: The ATPase activity of transporters are measured based on their vanadate sensitivity as known in the literature (see Noe et al. Hepatology, 2001, Vol. 33, No. 5, pp 1223-31; Schmitt et al. J. Neural. Transm., in press; Özvegy C et al. “Functional characterization of the human multidrug transporter, ABCG2, expressed in insect cells” Biochem Biophys Res Commun. 2001 July 6; 285(1):111-7.; Sarkadi, B. et al. (1992) Expression of the human multidrug resistance cDNA in insect cells generates a high activity drug-stimulated membrane ATPase. J Biol Chem 267: 4854-4858.).
(§2) The samples treated with cyclodextrin, or cholesterol@RAMEB complex was compared with untreated vesicles.
(§3) Briefly, as an example, membrane vesicles (20 μg/well) were incubated in ATPase assay buffer (10 mM MgCl2, 40 mM MOPS-Tris (pH 7.0), 50 mM KCl, 5 mM dithiothreitol, 0.1 mM EGTA, 4 mM sodium azide, 1 mM ouabain), 5 mM ATP and various concentrations of test drugs for 40 min at 37° C. ATPase activities were determined as the difference of inorganic phosphate liberation measured with and without the presence of 1.2 mM sodium orthovanadate (vanadate-sensitive ATPase activity).
EC50 is defined according to the International Union of Pharmacology Committee (Neubig, R. R., Spedding, M., Kenakin, T. and Christopoulos, A. (2003) International Union of Pharmacology Committee on Receptor Nomenclature and Drug Classification. XXXVIII. Update on terms and symbols in quantitative pharmacology. Pharmacol Rev 55: 597-606.).
The Michaelis-Menten parameters of maximal velocity (Vmax) and drug affinity (Km) were obtained from plots of the ATPase activity as a function of test drug concentration by nonlinear regression of the following equation:
where v=enzyme activity (nmol Pi/min/mg), Vmax=maximal ATPase activity (nmol Pi/min/mg), Km=Michaelis-Menten constant for the tested substrate (nM) and [S] substrate concentration (nM). The equation 3 was used also for curve fitting on vesicular transport graphs.

The target of the next data set is T2, wild-type ABCG2 (Homo sapiens, UniProt Q9UNQ0).
T2 sequence (Q9UNQ0 1-655): T1 sequence (Q9UNQ0 1-655)
Description: Vesicular transport assay, inside-out ABCG2-Sf9 membrane vesicles. The method, then:
Measurement of the vesicular transport activity: The transport activity measurements were carried out with purified membrane vesicles containing ABCG2 or Bsep isolated from baculovirus infected Sf9 (Spodoptera frugiperda) cells or mammalian (ABCG2-M) cells. The membrane preparations contain 5-16% closed, inside-out oriented, membrane vesicles. The transporter pumps the molecules inside of these vesicles. The vesicles can be separated by rapidly filtrating of the membrane suspension through a glass filter or through a nitrocellulose membrane (using vacuum).
The quantitative determination of the transported molecule can be done in several ways, like: HPLC, LC/MS, but also fluorescent or radioactive labeling is also suitable. Tritium labeled substrates were used in the assays and the mode of detection was liquid-scintillation.
Measurement of the vesicular transport activity in case of ABCG2: More closely, as examples, inside-out membrane vesicles were incubated in the presence or absence of 4 mM ATP. […] The transport was stopped by addition of cold wash buffer (40 mM MOPS-Tris (pH 7.0), 70 mM KCl).
The transport was stopped by addition of cold wash buffer (10 mM Tris-HCl, pH 7.4; 250 mM sucrose and 100 mM NaCl).
For estrone-3-sulfate vesicular transport 10 mM Tris-HCl, (pH 7.4), 250 mM sucrose, and 10 mM MgCl2 containing buffer were incubated at 32° C. for 1 min. The transport was stopped by addition of cold wash buffer (10 mM Tris-HCl, pH 7.4; 250 mM sucrose and 100 mM NaCl).
The incubation mix was then rapidly filtered through class B glass fiber filters (pore size, 0.1 μm). Filters were washed with 5×200 μl of ice cold wash buffer and radioactivity retained on the filter was measured by liquid scintillation counting. ATP-dependent transport was calculated by subtracting the values obtained in the absence of ATP from those in the presence of ATP.
Exemplary Assay Design and Main Steps for ABCG2 • Prepare an appropriate concentration of membrane suspension in assay buffer; add the unlabeled and ^3H-labeled substrates to the suspension.

Data set [2] concerns the target T1, ABCG2. Description: Vanadate sensitive ABCG2-ATPase assay in ABCG2-M (mammalian cell) membranes. The method, then:
Human membrane vesicle preparations (ABCG2-M) as well as membrane vesicle preparations obtained from insect cells expressing ABCG2, (MXR-Sf9) were obtained from Solvo Biotechnology (Budapest, Hungary). Both membranes are overexpressing the wild type version of ABCG2. The insect membrane vesicle preparations were produced using recombinant baculoviruses encoding ABCG2 (Ozvegy et al., 2002). Sf9 cells were cultured and infected with recombinant baculovirus stocks as described earlier (Sarkadi et al., 1992). Purified membrane vesicles from baculovirus-infected Sf9 cells were prepared essentially as described previously (Sarkadi et al., 1992). Membrane protein content was determined using the BCA method (Pierce Biotechnology, Rockford, Ill., USA).
as §1, §2, §3

Substrate in data set [3]: CN(Cc1cnc2nc(N)nc(N)c2n1)c1ccc(C(=O)N[C@@H](CCC(=O)O)C(=O)O)cc1
Description: cells, lysate or membranes named.

For the molecule `Nc1ncnc2c1ncn2[C@@H]1O[C@H](COP(=O)(O)OP(=O)(O)OP(=O)(O)O)[C@@H](O)[C@H]1O` [ATP], the Km on ABCG2 [1] is 2000 µM; at wild-type ABCG2, 600 to 800 µM; at ABCG2 [2] (read-out: KM of vanadate sensitive basal ATPase activity with respect to ATP, ABCG2-M membranes), 2200 µM. Further, at wild-type ABCG2, the “ATP concentration of maximum MTX transport rate” value is listed as “about 5 mM”.

For the molecule `COc1cccc2c1C(=O)c1c(O)c3c(c(O)c1C2=O)C[C@@](O)(C(=O)CO)C[C@@H]3O[C@H]1C[C@H](N)[C@H](O)[C@H](C)O1` [Doxorubicin], at ABCG2 [1] (human, 40 min, 50 uM, pH 7), the “Level of stimulation (vanadate sensitive ATPase activity in %)” value is on record as 83 ± 18 (3) %.

Consider `C[C@]12CC[C@@H]3c4ccc(O)cc4CC[C@H]3[C@@H]1CC[C@@H]2O[C@@H]1O[C@H](C(=O)O)[C@@H](O)[C@H](O)[C@H]1O` [ESG, estradiol 17-beta glucuronide], for which the figures for the “apparent Vmax of ESG uptake” value at wild-type ABCG2 (cholesterol-loaded vesicles) and on wild-type ABCG2 (control Sf9 membrane vesicles) were 700 pmol ESG/mg membrane protein/min and “less than 50 pmol ESG/mg membrane protein/min”, respectively. Besides, the Km at wild-type ABCG2 (read-out: apparent Km for ESG, cholesterol-loaded vesicles) is approximately 45 µM.

Turning to `C[C@]12CC[C@@H]3c4ccc(OS(=O)(=O)O)cc4CC[C@H]3[C@@H]1CCC2=O` [Estrone-3-sulfate, estrone 3-sulfate], the “Vmax (ABCG2-ATPase)” value came to 35.58 nmol Pi/mg prot./min on ABCG2 [1] and 38.87 nmol Pi/mg prot./min at ABCG2 [2].

As for `O=C(O)c1cc(/N=N/c2ccc(S(=O)(=O)Nc3ccccn3)cc2)ccc1O` [Sulfasalazine, sulfasalazine], the figures for the “Effect on ABCG2-ATPase activity (in words)” value on ABCG2 [1] and at ABCG2 [2] were “weak activator” and “significantly stimulated”, respectively. Further, the “Level of stimulation (vanadate sensitive ATPase activity in %)” value on ABCG2 [1] (human, 40 min, 20 uM, pH 7) is on record as 71% (3). Besides, the “Increase of vanadate sensitive ABCG2 ATPase activity in the presence of the substrate” value on ABCG2 [1] (human, 40 min, pH 7) is 5 nmol/Pi/mg prot/min. In addition, the “Vanadate sensitive ABCG2 ATPase activity activated by the substrate” value is listed as 58 nmol/Pi/mg prot/min on ABCG2 [1] (human, 40 min, pH 7) and 40 nmol/Pi/mg prot/min on ABCG2 [2] (human, 40 min, pH 7).

Turning to `CC[C@@]1(O)C(=O)OCc2c1cc1n(c2=O)Cc2cc3c(CN(C)C)c(O)ccc3nc2-1` [Topotecan, topotecan], the “Level of stimulation (vanadate sensitive ATPase activity in %)” value at ABCG2 [1] (human, 40 min, 200 uM, pH 7) came out at 31%. Moreover, the “Effect on ABCG2-ATPase activity (in words)” value on ABCG2 [1] (human, 40 min, pH 7) is “can not be activated”; at ABCG2 [2], “significantly stimulated”.

On to `COc1cc2ncnc(Nc3ccc(F)c(Cl)c3)c2cc1OCCCN1CCOCC1` [ZD 1839, Gefitinib], for which the “Level of stimulation (vanadate sensitive ATPase activity in %)” value at ABCG2 [1] (human, 40 min, 5 uM, pH 7) is 73 ± 19 (3) %.

In the case of `O=C1c2c(O)ccc(O)c2C(=O)c2c(NCCNCCO)ccc(NCCNCCO)c21` [mitoxantrone], the “Effect on ABCG2-ATPase activity (in words)” value at ABCG2 [1] is reported as “did not display any effect”.

Turning to Randomly methylated-β-cyclodextrin [CD], the “Effect of membrane pretreatment on ABCG2-dependent transport activity (in words)” value on wild-type ABCG2 is recorded as “did not significantly affect”.

As to rhodamine, the “Effect on ABCG2-ATPase activity (in words)” value on ABCG2 [1] (cholesterol loaded Sf9 membranes) is recorded as “did not display any effect”.

B1: wild-type ABCG2 (Homo sapiens) (protein)
chain: T1 sequence (Q9UNQ0 1-655)
As to B1, the Km came to 3900 µM in data set [3] (other: ABCG2-Sf9 membranes); 500 µM in data set [3] (other: both untreated and C-CD pretreated vesicles); 935 µM in data set [3] (other: untreated membranes, ± S.D.).

B2: ABCG2 (Homo sapiens) (protein)
chain: T1 sequence (Q9UNQ0 1-655)
With B2, the Michaelis constant (Km) in data set [3] (other: ABCG2-M membranes, pH 7.0, 37.0 °C) came to 3600 µM.

As usually defined, the Km is the concentration of substrate that gives half-maximal velocity.

Values taken from patent publication US8129197B2, “Cholesterol loaded insect cell membranes as test proteins” (SOLVO Biotechnológial ZRT., priority 2006, dated 2012).
